{"source": "paper PMC4257678", "about": "“Influence of Sampling on the Determination of Warfarin and Warfarin Alcohols in Oral Fluid” (PLoS ONE, 2014)", "key": {"[1]": {"experiment": "dissociation constant by HPLC-FLD at different mobile phase pH and methanol content", "details": "for best aqueous pKa: psKa vs Rwt% extrapolated at zero organic content", "experimental": "In brief, a standard working solution of WAROHs (1060 ng/mL) was prepared in a PBS buffer (25 mM at different pH value) and then analyzed in triplicate by HPLC-FLD. This approach is based on the different chromatographic behaviour of dissociated and non-dissociated forms of each compound at different pH values of the mobile phase. The pH was lowered in steps of 1 unit and ranged from 7.0 to 3.0. To reach the required pH, different aliquots of H3PO4 (85 wt% in H2O) were added to the mobile phase. The resulting pH was further checked by a pH-meter.\nThe capacity factor to pH variation ratio (Δk’/ΔpH) of both diastereoisomers was determined with different contents of organic modifiers (Rwt%: 40, 50 and 60) in the methanol-PBS mobile phase. The cosolvent dissociation constant (psKa) value was calculated by equation 1 [27]: [drawing 1] (1) where k’ HA and k’ A are the capacity factors of non-dissociate and dissociate forms, respectively. The pH and k’ values were defined as the corresponding point with a […] slope in the Δk’/ΔpH plot.\nThe dissociation constant (pKa) of both diastereoisomers of WAROHs was determined at different pH values of the mobile phase by the HPLC-FLD method by varying the organic solvent/water ratio."}, "[2]": {"details": "PBS 25 mM pH 7 / 1-octanol, 25°C, 24 hours, n = 3", "description": "The LogKow value at pH = 7 of both diastereoisomers of WAROHs was determined using the standardized OECD guidelines [25]. Briefly, a standard working solution of WAROHs (1000 ng/mL, C1) was prepared in triplicate in the PBS buffer (25 mM at pH = 7) and then mechanically stirred with an equal volume (4 mL) of 1-octanol at 25°C for 24 hours. The phase separation was obtained at room temperature by centrifuging at 5000 rpm for 5 min. […] The concentration in the organic phase was calculated by subtracting C2 and C3 from C1. LogKow at pH = 7 is expressed as the ratio of the compound concentration in the organic phase to that in the aqueous phase.\nThe value of LogKow at pH = 7 of both diastereoisomers of WAROHs was determined by the standardized shake-flask method. Octanol was added to a working solution of the WAROHs prepared in PBS at pH 7.0."}, "[3]": {"experiment": "not given", "remark": "listed apart in the source"}, "[4]": {"parameters": "method as in PMID 16867718", "details": "T = 25°C; cited from earlier work"}, "[5]": {"parameters": "method as in PMID 16867718", "details": "at 25°C; cited from earlier work"}, "[6]": {"details": "14 patients undergoing WAR therapy"}}, "note": "Where two headings read alike, the source gives them in different places."}
{"compound": "CC(O)CC(c1ccccc1)c1c(O)c2ccccc2oc1=O", "note": "(centres unmarked) [RR/SS-warfarin alcohols]", "values": [{"measurement": "concentration in pooled patients oral fluid sample", "setting": "Figure 2E, extracted PPOFS", "value": 0.6, "unit": "ng/mL"}, {"measurement": "best aqueous pKa", "setting": "[1]", "value": "6.55 ± 0.04"}, {"measurement": "LogKow at pH = 7", "setting": "[2]", "value": "0.83 ± 0.01"}, {"measurement": "total plasma concentration (mean ± s.d.)", "setting": "[3]; [6]", "value": "30 ± 20", "unit": "ng/mL"}, {"measurement": "total plasma concentration (range)", "setting": "[3]; [6]", "value": "13 to 82", "unit": "ng/mL"}]}
{"compound": "CC(=O)CC(c1ccccc1)c1c(O)c2ccccc2oc1=O", "note": "(stereo not drawn) [WAR, 3-(α-acetonylbenzyl)-4-hydroxycoumarin, reference compound]", "values": [{"measurement": "concentration in non-stimulated OF samples (mean ± s.d.)", "setting": "human, in vivo", "value": "3 ± 2", "unit": "ng/mL"}, {"measurement": "concentration in non-stimulated OF samples (range)", "setting": "human, in vivo", "value": "1 to 5", "unit": "ng/mL"}, {"measurement": "concentration in stimulated OF samples (mean ± s.d.)", "setting": "human, in vivo", "value": "6 ± 3", "unit": "ng/mL"}, {"measurement": "concentration in stimulated OF samples (range)", "setting": "human, in vivo", "value": "1 to 14", "unit": "ng/mL"}, {"measurement": "concentration in pooled patients oral fluid sample", "setting": "human, in vivo, po", "value": 9.8, "unit": "ng/mL"}, {"measurement": "pKa", "setting": "[1]", "value": "5.42 ± 0.03"}, {"measurement": "pKa", "setting": "[4]", "value": "5.15 ± 0.04"}, {"measurement": "LogKow at pH = 7", "setting": "[2]", "value": "0.94 ± 0.05"}, {"measurement": "total plasma concentration (mean ± s.d.)", "setting": "[3]; human, in vivo", "value": "1300 ± 500", "unit": "ng/mL"}, {"measurement": "total plasma concentration (range)", "setting": "[3]; human, in vivo", "value": "400 to 2000", "unit": "ng/mL"}, {"measurement": "unbound plasma concentration (mean ± s.d.)", "setting": "[3]; human, in vivo", "value": "9 ± 4", "unit": "ng/mL"}, {"measurement": "unbound plasma concentration (range)", "setting": "[3]; human, in vivo", "value": "3 to 17", "unit": "ng/mL"}, {"measurement": "LogP", "setting": "[5]", "value": "2.82 ± 0.06"}]}
{"compound": "CC(O)CC(c1ccccc1)c1c(O)c2ccccc2oc1=O", "note": "(centres unmarked) [RS/SR-warfarin alcohols]", "values": [{"measurement": "concentration in non-stimulated OF samples (mean ± s.d.)", "setting": "[6]", "value": "3 ± 2", "unit": "ng/mL"}, {"measurement": "concentration in non-stimulated OF samples (range)", "setting": "[6]", "value": "1 to 5", "unit": "ng/mL"}, {"measurement": "concentration in stimulated OF samples (mean ± s.d.)", "setting": "[6]", "value": "3 ± 2", "unit": "ng/mL"}, {"measurement": "concentration in stimulated OF samples (range)", "setting": "[6]", "value": "1 to 6", "unit": "ng/mL"}, {"measurement": "concentration in pooled patients oral fluid sample", "setting": "Figure 2E, extracted PPOFS", "value": 10.1, "unit": "ng/mL"}, {"measurement": "best aqueous pKa", "setting": "[1]", "value": "5.73 ± 0.03"}, {"measurement": "LogKow at pH = 7", "setting": "[2]", "value": "0.93 ± 0.01"}, {"measurement": "total plasma concentration (mean ± s.d.)", "setting": "[3]; [6]", "value": "600 ± 300", "unit": "ng/mL"}, {"measurement": "total plasma concentration (range)", "setting": "[3]; [6]", "value": "100 to 1100", "unit": "ng/mL"}, {"measurement": "unbound plasma concentration (mean ± s.d.)", "setting": "[3]; [6]", "value": "5 ± 3", "unit": "ng/mL"}, {"measurement": "unbound plasma concentration (range)", "setting": "[3]; [6]", "value": "1 to 10", "unit": "ng/mL"}]}
